Tested on: chronic low back pain
Experiment: Treatment of low back pain (herniated disc, lumbar spinal canal stenosis), single-subject case
Format: in vivo, human
Settings: person, before the composition
From the text: The acute pain was managed by a combination of pain killer medication and a series of physical therapies at that time. However, chronic low back pain remained ever since. […] The patient was also subjected to a series of disc decompression treatments (20 treatment sessions).
No medication and other treatment were applied prior to taking the composition of the present invention. Two pills (0.5 g each) of the composition of the present invention were taken by the patient every morning and at night (twice a day). Each pill was composed of Rhizoma Gastrodiae Elatae (˜30-60 mg), dry powder of Manitis (˜70-105 mg), dry powder of Agkistrodon seu Bungarus (˜25-40 mg), roots of Radix Aconiti Lateralis Preparata (˜50-90 mg) and Radix Paeoniae Lactiflorae (˜50-90 mg), Herba Asari cum Radice (˜25-40 mg), Cornu cervi Parvum (˜70-100 mg), Eupolyphaga seu Opisthoplatia (˜25-45 mg), and Sulindac (30 mg). Total daily dosage of Sulindac was 120 mg, which is lower than recommended dosage (400 mg/day). Sulindac is a NSAID for the treatment of arthritis, but not proposed for the treatment of sciatica nerve pain.

With Cc1ccc(-c2cc(C(F)(F)F)nn2-c2ccc(S(N)(=O)=O)cc2)cc1 [Celebrex] the “pain reduction by earlier prescribed medication” value was “not effective in reducing the pain”.

From US20080220084A1, “COMBINATION THERAPY FOR ALLEVIATING PAIN-RELATED CONDITIONS” (Pfantastic Medical Research Institute, LLC, priority 2007, published 2008)
